Tests used:
[1] = molecular target: CYP2C19 (Homo sapiens, UniProt P33261); test: CYP enzyme inhibition in pooled human liver microsomes (S-mephenytoin substrate); conditions: microsomes, 10 µM
Experimental: (§1) Cytochrome 450 (CYP) enzyme inhibition was evaluated using pooled human liver microsomes (Corning, #452117). […] Substrates and corresponding metabolites for each CYP isoform were as follows: phenacetin and acetaminophen for CYP1A2 (Sigma Aldrich, #77440 and A7085, respectively), diclofenac and 4'-hydroxydiclofenac for CYP2C9 (Sigma Aldrich, D6899; TRC, H825225), S-mephenytoin and 4'-hydroxymephenytoin for CYP2C19 (Sigma Aldrich, UC175; Santacruz, sc210197), dextromethorphan and dextrorphan for CYP2D6 (Sigma Aldrich, #81091 and UC205), and midazolam and 1'-hydroxymidazolam for CYP3A4 (KFDA; Sigma Aldrich, UC430).
(§2) Samples were preincubated at 37 °C for 5 min, and the reaction was initiated by the addition of the NADPH regeneration system, followed by incubation at 37 °C for 15 min. The reaction was terminated by adding acetonitrile containing the internal standard, and centrifuged at 15,000 rpm for 5 min at 4 °C. The supernatant was analyzed by LC–MS/MS using a Nexera XR system (Shimadzu, Japan) coupled with a TSQ Vantage mass spectrometer (Thermo, USA). […] Metabolites were quantified in multiple reaction monitoring (MRM) mode with Xcalibur software (version 4.4).
(§3) All experiments were performed in duplicate with variability ≤ 15%. The percent activity of each CYP enzyme was calculated based on metabolite formation relative to the no-inhibitor control.

[2] = test system: mice; test: Serum markers of hepatic, renal and cardiac toxicity; format: in vivo; conditions: 1 mg/kg, 2 weeks
Experimental: Serum aspartate aminotransferase (AST), alanine aminotransferase (ALT), blood urea nitrogen (BUN), Creatinine, Creatine kinase MB (CKMB), and lactate dehydrogenase (LDH) levels were analyzed with Fujifilm Dri-Chem 3500 s (Fujifilm, Kanagawa, Japan) according to the manufacturer’s instructions. The slides GOT/AST-P III, GPT/ALT-P III, BUN-P III, CRE-P III, CKMB-P, and LDH-P III were used.
a-f. Serum levels of aspartate transaminase (AST), alanine transaminase (ALT), blood urea nitrogen (BUN), creatinine, creatine kinase MB (CKMB), and lactate dehydrogenase (LDH) in 2 weeks of LJ-4378 (1mg/kg) treatment in mice. n = 3. Statistical significance was determined using an unpaired two-tailed t-test.

[3] = test system: plasma protein; test: Plasma protein binding, Rapid Equilibrium Dialysis (RED); format: in vitro ADME, human; conditions: 10 μM, 37 °C, 4 h
Experimental: (§4) The plasma protein binding of LJ-4378 was evaluated using the Rapid Equilibrium Dialysis (RED) method with 100% plasma from human (Biochemed, BC22089NCP), rat (Innovative, IRT-N), and mouse (Biochemed, 029-APSC-MP), all treated with sodium citrate as an anticoagulant. The RED device (ThermoFisher Scientific, #89809) and reusable base plate (ThermoFisher Scientific, #89811) were used with an 8 K MWCO membrane. Test compounds were added to plasma at a final concentration of 10 μM and dialyzed against phosphate-buffered saline (PBS, pH 7.4; Hyclone, #SH30256.01) at 37 °C for 4 h. After incubation, equal volumes of plasma and PBS samples were mixed with blank PBS and blank plasma, respectively, followed by the addition of acetonitrile containing chlorpropamide (TRC, C424800) as the internal standard. […] All measurements were performed in duplicate with a deviation of less than 15% between replicates. The free fraction (% Free) was calculated as (concentration in buffer chamber/concentration in plasma chamber) × 100, and the bound fraction (% Bound) was obtained by subtracting % Free from 100. In cases where measurements were unstable, deviations greater than 15% were allowed.

[4] = Plasma stability assay; format: in vitro ADME, rat; conditions: 37 °C, 30 min
Experimental: The plasma stability of LJ-4378 was evaluated using 100% plasma obtained from human (Biochemed, BC22089NCP, sodium citrate), rat (Innovative, IRT-N, sodium citrate), and mouse (Biochemed, 029-APSC-MP, sodium citrate). 10 Μm of LJ-4378 was added to the plasma, and samples were incubated at 37 °C for 0, 30, and 120 min. At each time point, an aliquot of the plasma was removed and mixed with acetonitrile containing the internal standard, chlorpropamide (TRC, C424800). […] The supernatant was injected into the LC–MS/MS system for quantification of the remaining compound. Analysis was performed using a Nexera XR system (Shimadzu, Japan) with a TSQ Vantage mass spectrometer (Thermo, USA). […] Data acquisition was conducted in MRM mode using Xcalibur software (version 4.4). All experiments were performed in duplicate with a deviation within 15%, and the percentage of compound remaining (% Remaining) at each time point was calculated relative to the non-incubated control sample. For quality control, procaine and enalapril (each at 10 μM) were used as reference compounds and were confirmed to fall within acceptable ranges.

[5] = molecular target: CYP2D6 (Homo sapiens, UniProt P10635); conditions: microsomes, 10 µM
Sequence of CYP2D6 (P10635 whole entry): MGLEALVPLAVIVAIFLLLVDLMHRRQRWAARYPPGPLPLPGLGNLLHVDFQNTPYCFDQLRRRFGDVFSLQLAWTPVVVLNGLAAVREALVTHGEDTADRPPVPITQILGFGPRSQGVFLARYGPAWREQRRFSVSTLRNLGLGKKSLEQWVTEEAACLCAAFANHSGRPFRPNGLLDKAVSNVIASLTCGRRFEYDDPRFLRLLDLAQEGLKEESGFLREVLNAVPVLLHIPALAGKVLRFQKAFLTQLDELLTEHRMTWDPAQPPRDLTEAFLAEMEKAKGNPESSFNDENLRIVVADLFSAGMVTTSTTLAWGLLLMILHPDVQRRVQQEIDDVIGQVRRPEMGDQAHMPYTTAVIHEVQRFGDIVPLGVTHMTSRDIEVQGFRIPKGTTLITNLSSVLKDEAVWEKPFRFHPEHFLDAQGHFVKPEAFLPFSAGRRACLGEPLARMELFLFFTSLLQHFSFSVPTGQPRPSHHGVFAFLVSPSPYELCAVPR
Experimental: as §1, §2, §3

[6] = Preliminary study, I.V. bolus administration to mice; format: in vivo
[7] = test system: plasma protein; test: Plasma protein binding, Rapid Equilibrium Dialysis (RED); format: in vitro ADME, rat; conditions: 10 μM, 37 °C, 4 h
Experimental: as §4

[8] = molecular target: T1, CYP1A2 (Homo sapiens, UniProt P05177); test: CYP enzyme inhibition in pooled human liver microsomes (phenacetin substrate); conditions: microsomes, 10 µM
T1 sequence (P05177 1-516): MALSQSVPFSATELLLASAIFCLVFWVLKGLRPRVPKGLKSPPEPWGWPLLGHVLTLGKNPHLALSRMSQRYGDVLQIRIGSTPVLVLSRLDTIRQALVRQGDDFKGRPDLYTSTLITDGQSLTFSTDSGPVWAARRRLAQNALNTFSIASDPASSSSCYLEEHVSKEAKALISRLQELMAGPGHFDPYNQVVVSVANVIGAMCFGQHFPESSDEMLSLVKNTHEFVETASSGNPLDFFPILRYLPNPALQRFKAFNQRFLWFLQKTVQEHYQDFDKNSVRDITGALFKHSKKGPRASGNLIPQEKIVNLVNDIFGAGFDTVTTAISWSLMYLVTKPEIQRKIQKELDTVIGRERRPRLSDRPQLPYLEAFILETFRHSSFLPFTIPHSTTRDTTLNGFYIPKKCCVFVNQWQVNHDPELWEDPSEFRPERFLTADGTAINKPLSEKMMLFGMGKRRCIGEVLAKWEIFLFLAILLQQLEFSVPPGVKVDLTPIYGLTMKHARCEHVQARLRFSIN
Experimental: as §1, §2, §3

[9] = molecular target: CYP3A4 (Homo sapiens, UniProt P08684); test: CYP enzyme inhibition in pooled human liver microsomes (midazolam substrate); conditions: at 10 µM, 15 min
Sequence of CYP3A4 (P08684 whole entry): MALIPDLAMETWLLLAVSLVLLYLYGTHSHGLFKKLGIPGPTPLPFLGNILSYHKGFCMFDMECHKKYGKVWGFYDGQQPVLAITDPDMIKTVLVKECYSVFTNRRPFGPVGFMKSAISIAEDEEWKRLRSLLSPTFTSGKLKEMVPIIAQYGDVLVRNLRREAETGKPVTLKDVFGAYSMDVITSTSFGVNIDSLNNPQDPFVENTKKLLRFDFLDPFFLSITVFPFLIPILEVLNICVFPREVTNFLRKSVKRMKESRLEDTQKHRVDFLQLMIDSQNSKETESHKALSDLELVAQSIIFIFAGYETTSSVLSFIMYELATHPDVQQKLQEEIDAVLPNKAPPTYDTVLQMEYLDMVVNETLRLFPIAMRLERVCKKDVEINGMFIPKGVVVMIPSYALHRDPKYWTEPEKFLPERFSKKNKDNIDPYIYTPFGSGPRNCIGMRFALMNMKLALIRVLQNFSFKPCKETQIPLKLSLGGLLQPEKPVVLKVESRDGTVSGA
Experimental: as §1, §2, §3

[10] = design: method as in Jastreboff et al. [2022]; Sattar et al. [2022]; conditions: over 72 weeks; ref Jastreboff et al. [2022]; Sattar et al. [2022]; cited from earlier work

Sequence of CYP2C19 (P33261 whole entry, canonical isoform): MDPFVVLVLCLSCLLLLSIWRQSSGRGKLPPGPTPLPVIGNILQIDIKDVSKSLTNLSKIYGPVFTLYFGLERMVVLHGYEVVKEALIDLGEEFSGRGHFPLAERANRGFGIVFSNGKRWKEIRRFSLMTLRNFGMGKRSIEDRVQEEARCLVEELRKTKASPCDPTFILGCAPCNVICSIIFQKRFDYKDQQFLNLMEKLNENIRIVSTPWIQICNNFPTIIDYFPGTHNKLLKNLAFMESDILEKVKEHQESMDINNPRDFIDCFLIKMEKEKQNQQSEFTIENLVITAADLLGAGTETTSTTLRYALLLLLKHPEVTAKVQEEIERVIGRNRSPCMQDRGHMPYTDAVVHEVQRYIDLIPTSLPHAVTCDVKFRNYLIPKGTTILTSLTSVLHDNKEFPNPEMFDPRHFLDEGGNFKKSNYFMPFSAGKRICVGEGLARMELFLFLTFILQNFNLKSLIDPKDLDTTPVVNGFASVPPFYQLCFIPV

| Molecule | % of control activity CYP2C19 [1] [%] | hepatic, renal, and cardiac injury markers (AST, ALT, BUN, creatinine, CKMB, LDH) [2] | Plasma free fraction (% Free), Human [3] [%] | % Remaining compound, Rat plasma 30 min [4] [%] | % of control activity CYP2D6 [5] [%] | terminal phase half-life [6] | Plasma free fraction (% Free), Rat [7] [%] | % of control activity CYP1A2 [8] [%] | % of control activity CYP3A4 [9] [%] | weight reductions in clinical studies [10] |
| --- | --- | --- | --- | --- | --- | --- | --- | --- | --- | --- |
| CCCCC#Cc1nc(N)c2ncn([C@@H]3SC[C@@H](O)[C@H]3O)c2n1 [LJ-4378] | 85.3 | no evidence of organ toxicity | 30.1 | > 100 | 89.3 | approximately 0.29 h | 29.7 | 82.2 | 96.9 | – |
| Tirzepatide [TZP, reference compound] | – | – | – | – | – | – | – | – | – | up to 22.5% |

Reference: article PMC12680861, “Comparative analysis of LJ-4378 and tirzepatide in mouse models of obesity and weight regain” (Archives of Pharmacal Research, 2025)
